Experimental findings from US9469615B2, “Quinoxalines and AZA-quinoxalines as CRTH2 receptor modulators” (Merck Sharp & Dohme Corp., priority 2010, dated 2016) are described below.

One experiment deals with T1, hCRTH2 (Homo sapiens, UniProt Q9Y5Y4).
T1 construct: expressed in transfected cells; host or cells: HEK (human embryonic kidney) cells expressing hCRTH2; membrane preparation
T1 sequence (Q9Y5Y4 1-395): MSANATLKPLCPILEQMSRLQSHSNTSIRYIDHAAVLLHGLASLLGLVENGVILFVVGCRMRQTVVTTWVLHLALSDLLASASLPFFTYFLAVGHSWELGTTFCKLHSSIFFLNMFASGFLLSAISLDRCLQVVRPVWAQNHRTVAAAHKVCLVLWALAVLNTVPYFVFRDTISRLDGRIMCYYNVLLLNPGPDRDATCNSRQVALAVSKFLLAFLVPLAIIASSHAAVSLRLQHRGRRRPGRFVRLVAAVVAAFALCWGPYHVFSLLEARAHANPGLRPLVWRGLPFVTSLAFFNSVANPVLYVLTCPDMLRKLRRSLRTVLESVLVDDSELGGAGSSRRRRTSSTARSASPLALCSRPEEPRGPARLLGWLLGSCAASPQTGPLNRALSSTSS
Briefly: Radioligand binding assay ([3H]PGD2 competition, HEK-hCRTH2 membranes). As to conditions: [3H]PGD2 binding, values in text. The gist of the method: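 Competition against 3.0 nM [3H]PGD2 was run for 60 min at room temperature in pH 7.4 Tris-HCl buffer with EDTA, 2 mM MnCl2 and 1% DMSO, using 8-20 μg HEK-hCRTH2 membrane protein. 10 μM PGD2 set non-specific binding; filter-bound counts were read by scintillation.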
Consider `C[C@@H](CCc1nc2cc(C(=O)N(C)Cc3ccc(F)cc3)ccc2nc1-c1ccccc1)CC(=O)O` [compound 292], for which affinity was put at a Ki of 39.2 nM.

Staying with this experiment, now noted: [3H]PGD2 competition, Table B.
In turn, `C[C@@H](CCc1nc2cc(C(=O)N[C@H](C)c3ccc(F)cc3)ccc2nc1-c1ccccc1)CC(=O)O` [compound 287, (S)-5-(7-(((R)-1-(4-fluorophenyl)ethyl)carbamoyl)-3-phenylquinoxalin-2-yl)-3-methylpentanoic acid] yielded a Ki of 20.1 to 200 nM.

Compound `C[C@@H](CCc1nc2cc(C(=O)N[C@@H](C)c3ccc(F)cc3)ccc2nc1-c1ccccc1)CC(=O)O` [compound 288, (S)-5-(7-(((S)-1-(4-fluorophenyl)ethyl)carbamoyl)-3-3-phenylquinoxalin-2-yl)-3-methylpentanoic acid] came in with a Ki of 20.1 to 200 nM. The compound `C[C@@H](CCc1nc2cc(C(=O)N3CCN(c4ccccc4)CC3)ccc2nc1-c1ccccc1)CC(=O)O` [compound 289, (S)-3-methyl-5-(3-phenyl-7-(4-phenylpiperazine-1-carbonyl)quinoxalin-2-yl)pentanoic acid] showed a Ki of 20.1 to 200 nM. On the same count and under the same terms, to `C[C@@H](CCc1nc2cc(C(=O)N3CC(c4cccc(F)c4)C3)ccc2nc1-c1ccccc1)CC(=O)O` [compound 290, (S)-5-(7-(3-(3-fluorophenyl)azetidine-1-carbonyl)-3-phenylquinoxalin-2-yl)-3-methylpentanoic acid] belongs 2.1 to 20 nM; to `C[C@@H](CCc1nc2cc(C(=O)N3CC[C@@H](c4ccccc4)C3)ccc2nc1-c1ccccc1)CC(=O)O` [compound 291, (S)-3-methyl-5-(3-phenyl-7-((S)-3-phenylpyrrolidine-1-carbonyl)quinoxalin-2-yl)pentanoic acid], 2.1 to 20 nM; to `C[C@@H](CCc1nc2cc(C(=O)N(C)Cc3ccc(F)cc3)ccc2nc1-c1ccccc1)CC(=O)O` [compound 292], 20.1 to 200 nM. On the same count and under the same terms, the result for `C[C@@H](CCc1nc2cc(C(=O)N[C@@H]3CCCc4ccccc43)ccc2nc1-c1ccccc1)CC(=O)O` [compound 293, (S)-3-methyl-S-(3-phenyl-7-(((R)-1,2,3,4-tetrahydronaphthalen-1-yl)carbamoyl)quinoxalin-2-yl)pentanoic acid] reads 2.1 to 20 nM; that for `O=C(O)CCCCc1nc2cc(C(=O)NC3CCCOc4ccccc43)ccc2nc1-c1ccccc1` (centres unmarked) [compound 294, 5-(3-phenyl-7-((2,3,4,5-tetrahydrobenzo[b]oxepin-5-yl)carbamoyl)quinoxalin-2-yl)pentanoic acid], 2.1 to 20 nM; that for `CC1(C)CC(NC(=O)c2ccc3nc(-c4ccccc4)c(CCCCC(=O)O)nc3c2)c2ccccc2O1` (centres unmarked) [compound 295, 5-(7((2,2-dimethylchroman-4-yl)carbamoyl)-3-phenylquinoxalin-2-yl)pentanoic acid], 2.1 to 20 nM. As for `CC1(C)CCC(NC(=O)c2ccc3nc(-c4ccccc4)c(CCCCC(=O)O)nc3c2)c2ccccc21` (centres unmarked) [compound 296, 5-(7-((4,4-dimethyl-1,2,3,4-tetrahydronaphthalen-1-yl)carbamoyl)-3-phenylquinoxalin-2-yl)pentanoic acid], the Ki is 2.1 to 20 nM. As to `O=C(O)CCCCc1nc2cc(C(=O)N3CCC4(CCCc5ccccc54)C3)ccc2nc1-c1ccccc1` (centres unmarked) [compound 297, 5-(7-(3,4-dihydro-2H-spiro[naphthalene-1,3′-pyrrolidin]-1′-ylcarbonyl)-3-phenylquinoxalin-2-yl)pentanoic acid], the Ki fell in the range of 2.1 to 20 nM.

On to `O=C(O)CCCCc1nc2cc(C(=O)N3CCC4(CC3)CNC(=O)c3ccccc34)ccc2nc1-c1ccccc1` [compound 298, 5-(7-(i-oxo-2,3-dihydro-1H-spiro[isoquinoline-4,4′-piperidin]-1′-ylcarbonyl)-3-phenylquinoxalin-2-yl)pentanoic acid], for which the Ki was in the range of 2.1 to 20 nM. Same read-out and setting: to `O=C(O)CCCCc1nc2cc(C(=O)N3CCC4(CC3)NC(=O)Cc3ccccc34)ccc2nc1-c1ccccc1` [compound 299, 5-(7-(3-oxo-3,4-dihydro-2H-spiro[isoquinoline-1,4′-piperidin]-1′-ylcarbonyl)-3-phenylquinoxalin-2-yl)pentanoic acid] belongs 2.1 to 20 nM. Still for that read-out and setting: the result for `O=C(O)CCCCc1nc2cc(C(=O)N3CCC4(CC3)Cc3ccccc3C(=O)N4)ccc2nc1-c1ccccc1` [compound 300, 5-(7-(1-oxo-2,4-dihydro-1H-spiro[isoquinoline-3,4′-piperidin]-1′-ylcarbonyl)-3-phenylquinoxalin-2-yl)pentanoic acid] reads 2.1 to 20 nM. `O=C(O)CCCCc1nc2cc(C(=O)N[C@@H]3CCSc4ccccc43)ccc2nc1-c1ccccc1` [compound 301, (R)-5-(3-phenyl-7-(thiochroman-4-ylcarbamoyl)quinoxalin-2-yl)pentanoic acid] displayed a Ki of 2.1 to 20 nM. Regarding `O=C(O)CCCCc1nc2cc(C(=O)N3CCN(Cc4ccccc4)CC3)ccc2nc1-c1ccccc1` [compound 302, 5-(7-(4-benzylpiperazine-1-carbonyl)-3-phenylquinoxalin-2-yl)pentanoic acid], the Ki was in the range of 2.1 to 20 nM.

For `N#Cc1cccnc1N1CCN(C(=O)c2ccc3nc(-c4ccccc4)c(CCCCC(=O)O)nc3c2)CC1` [compound 303, 5-(7-(4-(3-cyanopyridin-2-yl)piperazine-1-carbonyl)-3-phenylquinoxalin-2-yl)pentanoic acid], the Ki was in the range of 2.1 to 20 nM. Compound `O=C(O)CCCCc1nc2cc(C(=O)N3CCN(c4c(Cl)cncc4Cl)CC3)ccc2nc1-c1ccccc1` [compound 304, 5-(7-(4-(3,5-dichloropyridin-4-yl)piperazine-1-carbonyl)-3-phenylquinoxalin-2-yl)pentanoic acid] had a Ki of 2.1 to 20 nM. On the same count and under the same terms, to `O=C(O)CCCCc1nc2cc(C(=O)N3CCN(c4ccccc4C(F)(F)F)CC3)ccc2nc1-c1ccccc1` [compound 305, 5-(3-phenyl-7-(4-(2-(trifluoromethyl)phenyl)piperazine-1-carbonyl)quinoxalin-2-yl)pentanoic acid] belongs 2.1 to 20 nM; to `O=C(O)CCCCc1nc2cc(C(=O)N3CCN(c4nccs4)CC3)ccc2nc1-c1ccccc1` [compound 306, 5-(3-phenyl-7-(4-(thiazol-2-yl)piperazine-1-carbonyl)quinoxalin-2-yl)pentanoic acid], 20.1 to 200 nM. The compound `O=C(O)CCCCc1nc2cc(C(=O)N3Cc4ccccc4C3)ccc2nc1-c1ccccc1` [compound 307, 5-(7-(isoindoline-2-carbonyl)-3-phenylquinoxalin-2-yl)pentanoic acid] registered a Ki of 20.1 to 200 nM. In the case of `O=C(O)CCCCc1nc2cc(C(=O)N3CCN(c4ccccc4Cl)CC3)ccc2nc1-c1ccccc1` [compound 308, 5-(7-(4-(2-chlorophenyl)piperazine-1-carbonyl)-3-phenylquinoxalin-2-yl)pentanoic acid], the Ki was in the range of 2.1 to 20 nM. On the same count and under the same terms, to `O=C(O)CCCCc1nc2cc(C(=O)N3CCN(c4cccc(C(F)(F)F)c4)CC3)ccc2nc1-c1ccccc1` [compound 309, 5-(3-phenyl-7-(4-(3-(trifluoromethyl)phenyl)piperazine-l-carbonyl)quinoxalin-2-yl)pentanoic acid] belongs 2.1 to 20 nM; to `O=C(O)CCCCc1nc2cc(C(=O)N[C@H]3CCOc4cc(F)ccc43)ccc2nc1-c1ccccc1` [compound 310, (S)-5-(7((7-fluorochroman-4-yl)carbamoyl)-3-phenylquinoxalin-2-yl)pentanoic acid], 2.1 to 20 nM; to `O=C(O)CCCCc1nc2cc(C(=O)NC3CCCc4cc(OCc5ccccc5)ccc43)ccc2nc1-c1ccc(Cl)cc1` (centres unmarked) [compound 311, 5-(7-((6-(benzyloxy)-1,2,3,4-tetrahydronaphthalen-1-yl)carbamoyl)-3-(4-chlorophenyl)quinoxalin-2-yl)pentanoic acid], 2.1 to 20 nM.

The term Ki denotes a dissociation constant, usually derived from enzyme kinetics or from competition with a known ligand. Lower therefore signals higher affinity.
